In ChEMBL document CHEMBL4342507, “Targeting YAP Degradation by a Novel 1,2,4-Oxadiazole Derivative via Restoration of the Function of the Hippo Pathway” (ACS Med Chem Lett, 2020):
Active and inactive are the calls of the source. No cut-off for these calls is given here.

Experiments:
SUM-159-PT [1] = assay: Cytotoxicity against human SUM159 cells assessed as reduction in cell viability measured after 72 hrs by MTT assay; assay type: functional, cell-based
[2] = molecular target: T1, Serine/threonine-protein kinase LATS1 (Homo sapiens) (UniProt O95835); assay: Activation of LATS1 in human SUM159 cells assessed as increase in phosphorylation at Ser909 residue measured after 12 hrs by Western blot analysis; assay type: cell-based
T1 sequence (whole entry): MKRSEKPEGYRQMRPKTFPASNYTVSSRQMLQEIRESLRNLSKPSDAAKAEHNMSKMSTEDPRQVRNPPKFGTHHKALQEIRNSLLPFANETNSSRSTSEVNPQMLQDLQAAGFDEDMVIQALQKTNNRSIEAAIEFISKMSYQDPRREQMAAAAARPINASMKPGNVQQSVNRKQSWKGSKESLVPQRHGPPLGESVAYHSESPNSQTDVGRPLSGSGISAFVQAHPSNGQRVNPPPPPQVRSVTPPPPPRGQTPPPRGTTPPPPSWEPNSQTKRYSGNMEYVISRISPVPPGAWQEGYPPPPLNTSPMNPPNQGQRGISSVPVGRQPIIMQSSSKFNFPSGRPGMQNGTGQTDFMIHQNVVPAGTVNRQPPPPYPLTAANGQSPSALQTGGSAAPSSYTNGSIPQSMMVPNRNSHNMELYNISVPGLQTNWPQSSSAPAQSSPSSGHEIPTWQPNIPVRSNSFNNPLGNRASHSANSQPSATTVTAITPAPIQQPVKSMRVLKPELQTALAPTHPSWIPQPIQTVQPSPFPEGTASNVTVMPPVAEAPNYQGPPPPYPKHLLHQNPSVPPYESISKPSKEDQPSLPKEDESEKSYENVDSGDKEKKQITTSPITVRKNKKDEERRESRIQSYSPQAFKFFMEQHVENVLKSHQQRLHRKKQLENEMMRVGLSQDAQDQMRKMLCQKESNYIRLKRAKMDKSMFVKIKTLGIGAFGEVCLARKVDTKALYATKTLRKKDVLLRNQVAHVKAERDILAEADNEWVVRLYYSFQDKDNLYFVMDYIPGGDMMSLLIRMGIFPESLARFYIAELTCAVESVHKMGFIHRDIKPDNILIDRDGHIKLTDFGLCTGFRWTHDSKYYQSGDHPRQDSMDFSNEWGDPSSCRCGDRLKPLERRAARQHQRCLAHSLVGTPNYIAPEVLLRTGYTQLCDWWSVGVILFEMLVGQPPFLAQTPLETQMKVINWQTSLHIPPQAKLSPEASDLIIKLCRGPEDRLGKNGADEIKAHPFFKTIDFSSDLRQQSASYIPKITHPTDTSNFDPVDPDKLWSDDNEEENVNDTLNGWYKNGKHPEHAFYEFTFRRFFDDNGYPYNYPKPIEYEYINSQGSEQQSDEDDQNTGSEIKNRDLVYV

MCF7 = assay: Cytostatic activity against human MCF7 cells assessed as cell viability at concentration of greater than IC50 measured up to 72 hrs by MTT assay; assay type: functional, cell-based
PC-9 = assay: Cytotoxicity against human PC9 cells assessed as reduction in cell viability measured after 72 hrs by MTT assay; assay type: functional, cell-based
MDA-MB-231 = assay: Effect on MST2 expression in human MDA-MB-231 cells at 0.25 to 1.5 uM measured after 24 hrs by Western blot analysis; assay type: functional, cell-based
SUM-159-PT [3] = assay: Cytostatic activity against human SUM159 cells assessed as cell viability at concentration of greater than IC50 measured up to 72 hrs by MTT assay; assay type: functional, cell-based
[4] = molecular target: T1, Serine/threonine-protein kinase LATS1 (Homo sapiens); assay: Activation of LATS1 in triple-negative human SUM159 cells assessed as effect on YAP mRNA level at 0.25 to 1 uM measured after 12 hrs by Trizol reagent based RT-PCR analysis
SUM-159-PT [5] = assay: Effect on MOB expression in human SUM159 cells at 0.25 to 1.5 uM measured after 12 hrs by Western blot analysis; assay type: functional, cell-based
PC-3 [6] = assay: Cytotoxicity against human PC3 cells assessed as reduction in cell viability measured after 72 hrs by MTT assay; assay type: functional, cell-based
[7] = molecular target: T1, Serine/threonine-protein kinase LATS1 (Homo sapiens); assay: Activation of LATS1 in human PC9 cells assessed as induction of YAP degradation by measuring suppression of YAP protein expression at 0.25 to 1.5 uM measured after 12 to 24 hrs by immunoblotting analysis; assay type: cell-based
[8] = molecular target: Epidermal growth factor receptor (Homo sapiens) (UniProt P00533); assay: Induction of EGFR degradation in human MDA-MB-231 cells assessed as suppression of EGFR expression at 0.1 to 0.8 uM by Western blot analysis; assay type: cell-based
Chain of Epidermal growth factor receptor (Homo sapiens) (P00533 whole entry): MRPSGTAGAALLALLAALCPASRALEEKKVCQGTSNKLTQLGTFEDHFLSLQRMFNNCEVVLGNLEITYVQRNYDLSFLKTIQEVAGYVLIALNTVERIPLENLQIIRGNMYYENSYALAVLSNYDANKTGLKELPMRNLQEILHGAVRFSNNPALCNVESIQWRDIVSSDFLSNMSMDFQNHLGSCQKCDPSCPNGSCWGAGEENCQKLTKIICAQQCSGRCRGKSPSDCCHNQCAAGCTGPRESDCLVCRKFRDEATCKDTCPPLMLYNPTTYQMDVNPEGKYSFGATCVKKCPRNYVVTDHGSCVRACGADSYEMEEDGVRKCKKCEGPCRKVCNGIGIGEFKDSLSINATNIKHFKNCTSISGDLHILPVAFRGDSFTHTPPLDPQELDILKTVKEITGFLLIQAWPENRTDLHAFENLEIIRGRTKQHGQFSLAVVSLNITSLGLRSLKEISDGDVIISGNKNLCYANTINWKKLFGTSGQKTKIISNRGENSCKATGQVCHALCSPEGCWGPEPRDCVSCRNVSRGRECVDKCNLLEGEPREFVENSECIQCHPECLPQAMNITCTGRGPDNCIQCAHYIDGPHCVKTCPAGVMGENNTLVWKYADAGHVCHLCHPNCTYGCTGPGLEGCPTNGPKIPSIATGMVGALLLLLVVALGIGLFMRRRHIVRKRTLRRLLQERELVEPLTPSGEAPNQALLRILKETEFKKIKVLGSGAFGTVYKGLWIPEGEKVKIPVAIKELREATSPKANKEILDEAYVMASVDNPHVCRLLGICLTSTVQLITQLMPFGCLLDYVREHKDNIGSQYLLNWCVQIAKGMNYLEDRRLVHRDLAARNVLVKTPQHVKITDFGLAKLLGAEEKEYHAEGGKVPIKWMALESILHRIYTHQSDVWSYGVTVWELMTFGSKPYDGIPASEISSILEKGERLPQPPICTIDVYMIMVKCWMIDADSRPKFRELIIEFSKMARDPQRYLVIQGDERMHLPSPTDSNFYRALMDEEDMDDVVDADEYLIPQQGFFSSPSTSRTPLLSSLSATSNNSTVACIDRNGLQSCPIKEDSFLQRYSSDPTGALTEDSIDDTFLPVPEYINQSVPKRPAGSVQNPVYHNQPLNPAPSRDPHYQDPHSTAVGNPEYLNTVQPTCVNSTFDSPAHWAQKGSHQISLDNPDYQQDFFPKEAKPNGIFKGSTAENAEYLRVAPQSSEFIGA

PC-3 [9] = assay: Cytotoxicity against human PC3 cells assessed as reduction in cell viability at 0.2 to 1.2 uM by MTT assay; assay type: functional, cell-based; conditions: TDE = time-dependent effect
[10] = molecular target: Serine/threonine-protein kinase 3/4 (Homo sapiens) (UniProt Q13043+Q13188); assay: Activation of MST1/2 in human SUM159 cells assessed as effect on phosphorylation at T183/T180 residues at 0.25 to 1.5 uM measured after 12 hrs by Western blot analysis; assay type: cell-based
Chain of Serine/threonine-protein kinase 3/4 (Homo sapiens) (Q13043 whole entry, looked up): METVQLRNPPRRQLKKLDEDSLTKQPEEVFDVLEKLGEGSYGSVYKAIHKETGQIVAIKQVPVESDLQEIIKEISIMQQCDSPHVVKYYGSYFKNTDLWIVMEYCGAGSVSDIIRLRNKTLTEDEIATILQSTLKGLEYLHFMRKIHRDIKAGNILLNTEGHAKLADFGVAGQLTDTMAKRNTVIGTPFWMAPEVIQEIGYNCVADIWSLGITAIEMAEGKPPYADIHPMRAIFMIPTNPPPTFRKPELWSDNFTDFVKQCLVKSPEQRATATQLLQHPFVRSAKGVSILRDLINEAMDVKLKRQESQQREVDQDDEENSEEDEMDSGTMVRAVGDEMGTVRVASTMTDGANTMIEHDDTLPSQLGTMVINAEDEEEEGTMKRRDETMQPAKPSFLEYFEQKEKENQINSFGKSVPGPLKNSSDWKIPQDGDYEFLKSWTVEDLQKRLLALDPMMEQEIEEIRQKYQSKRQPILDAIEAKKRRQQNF
Chain of Serine/threonine-protein kinase 3/4 (Homo sapiens) (Q13188 whole entry, looked up): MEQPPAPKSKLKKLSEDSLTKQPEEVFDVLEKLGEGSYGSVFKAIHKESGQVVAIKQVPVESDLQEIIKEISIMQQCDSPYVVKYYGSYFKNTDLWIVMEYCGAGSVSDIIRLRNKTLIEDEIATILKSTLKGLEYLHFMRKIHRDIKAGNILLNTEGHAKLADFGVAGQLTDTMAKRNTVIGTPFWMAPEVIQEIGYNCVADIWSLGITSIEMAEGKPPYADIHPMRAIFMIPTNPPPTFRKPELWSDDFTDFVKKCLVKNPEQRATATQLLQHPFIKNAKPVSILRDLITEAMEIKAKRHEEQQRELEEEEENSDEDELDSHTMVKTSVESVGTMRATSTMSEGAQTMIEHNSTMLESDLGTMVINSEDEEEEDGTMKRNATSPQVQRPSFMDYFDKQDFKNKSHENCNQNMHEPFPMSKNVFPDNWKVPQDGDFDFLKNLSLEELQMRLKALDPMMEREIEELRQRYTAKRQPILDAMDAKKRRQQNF

[11] = molecular target: T1, Serine/threonine-protein kinase LATS1 (Homo sapiens); assay: Activation of LATS1 in human MDA-MB-231 cells assessed as induction of YAP degradation by measuring suppression of YAP protein expression at 0.5 uM pretreated with compound for 24 hrs followed by incubation with protein synthesis inhibitor, CHX up to 48 hrs by Western blot analysis; assay type: cell-based
[12] = Acute toxicity in athymic Nude-Foxn1nu BALB/c mouse xenografted with human MDA-MB-231 cells assessed as effect on serum creatinine level at 200 mg/kg, po administered once daily via gavage for 14 days; assay type: organism-based; conditions: in vivo, 336 h
[13] = molecular target: T1, Serine/threonine-protein kinase LATS1 (Homo sapiens); assay: Activation of LATS1 in human PC3 cells assessed as increase in phosphorylation at Thr1079 residue measured after 24 hrs by Western blot analysis; assay type: cell-based
[14] = molecular target: T1, Serine/threonine-protein kinase LATS1 (Homo sapiens); assay: Activation of LATS1 in human MDA-MB-231 cells assessed as increase in YAP phosphorylation at Ser397 at 0.25 to 1.5 uM measured after 24 to 48 hrs by immunoblotting analysis; assay type: cell-based
Homo sapiens = species: Homo sapiens; assay: Activation of MOB in human SUM159 cells assessed as phosphorylation at Thr35 residue at 0.25 to 1.25 uM measured after 12 hrs by Western blot analysis; assay type: cell-based
[15] = molecular target: Hepatocyte growth factor receptor (Homo sapiens) (UniProt P08581); assay: Induction of c-MET degradation in human MDA-MB-231 cells assessed as suppression of c-MET expression at 0.1 to 0.8 uM by Western blot analysis; assay type: cell-based
Chain of Hepatocyte growth factor receptor (Homo sapiens) (P08581 whole entry): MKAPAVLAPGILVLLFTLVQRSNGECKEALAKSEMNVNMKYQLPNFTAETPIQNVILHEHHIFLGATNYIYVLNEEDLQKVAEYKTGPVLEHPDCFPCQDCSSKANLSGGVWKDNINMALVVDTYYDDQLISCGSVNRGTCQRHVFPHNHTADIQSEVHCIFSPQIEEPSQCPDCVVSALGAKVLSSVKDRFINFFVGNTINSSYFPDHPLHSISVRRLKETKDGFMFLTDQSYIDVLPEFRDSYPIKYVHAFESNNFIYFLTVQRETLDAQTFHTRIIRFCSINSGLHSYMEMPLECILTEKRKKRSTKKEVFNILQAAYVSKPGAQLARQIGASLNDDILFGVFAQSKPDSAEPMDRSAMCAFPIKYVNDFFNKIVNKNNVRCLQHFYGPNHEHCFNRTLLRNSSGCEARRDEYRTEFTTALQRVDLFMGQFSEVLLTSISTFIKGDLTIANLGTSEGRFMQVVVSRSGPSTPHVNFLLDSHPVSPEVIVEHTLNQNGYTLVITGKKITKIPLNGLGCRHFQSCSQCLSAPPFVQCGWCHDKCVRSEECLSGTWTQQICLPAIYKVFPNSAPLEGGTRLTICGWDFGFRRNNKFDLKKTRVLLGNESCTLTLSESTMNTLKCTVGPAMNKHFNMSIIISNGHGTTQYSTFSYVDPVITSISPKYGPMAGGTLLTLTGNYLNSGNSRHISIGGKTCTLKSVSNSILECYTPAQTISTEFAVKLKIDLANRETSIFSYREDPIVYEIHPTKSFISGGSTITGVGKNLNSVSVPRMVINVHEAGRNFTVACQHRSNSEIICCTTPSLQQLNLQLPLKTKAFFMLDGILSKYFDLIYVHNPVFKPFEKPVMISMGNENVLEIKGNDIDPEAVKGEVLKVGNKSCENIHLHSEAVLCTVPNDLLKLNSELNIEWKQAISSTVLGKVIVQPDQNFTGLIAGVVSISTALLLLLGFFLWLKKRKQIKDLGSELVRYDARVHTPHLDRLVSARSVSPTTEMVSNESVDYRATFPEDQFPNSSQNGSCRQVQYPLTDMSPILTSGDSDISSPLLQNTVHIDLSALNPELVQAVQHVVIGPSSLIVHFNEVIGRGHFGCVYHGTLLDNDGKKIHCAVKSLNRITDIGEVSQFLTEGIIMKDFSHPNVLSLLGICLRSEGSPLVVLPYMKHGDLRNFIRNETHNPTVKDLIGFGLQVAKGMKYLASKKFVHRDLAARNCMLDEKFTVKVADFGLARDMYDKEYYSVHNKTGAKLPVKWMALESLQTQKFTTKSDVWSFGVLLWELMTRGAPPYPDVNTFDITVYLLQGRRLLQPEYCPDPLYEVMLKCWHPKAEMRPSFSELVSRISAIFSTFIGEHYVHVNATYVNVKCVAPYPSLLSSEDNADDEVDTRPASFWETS

[16] = molecular target: T1, Serine/threonine-protein kinase LATS1 (Homo sapiens); assay: Activation of LATS1 in triple-negative human SUM159 cells assessed as induction of YAP degradation by measuring suppression of YAP protein expression at 0.25 to 1 uM measured after 12 hrs by Western blot analysis
[17] = Acute toxicity in athymic Nude-Foxn1nu BALB/c mouse xenografted with human MDA-MB-231 cells assessed as effect on serum AST level at 200 mg/kg, po administered once daily via gavage for 14 days; assay type: organism-based; conditions: in vivo, 336 h

CC(=O)Nc1ccc(NC(=O)Nc2cccc(-c3nc(-c4ccc(NC(=O)c5cccnc5)cc4Cl)no3)c2)cc1C(F)(F)F
Activity (SUM-159-PT [1]): Dose-dependent effect | IC50 (SUM-159-PT [1]): 400 to 800 nM | Activity [2]: Dose-dependent effect | Activity (MCF7): Active | Activity (PC-9): Dose-dependent effect | IC50 (PC-9; PC-9, 72 h): 400 to 800 nM | Activity (MDA-MB-231): inactive | Activity (SUM-159-PT [3]): Active | Activity [4]: inactive | Activity (SUM-159-PT [5]): inactive | Activity (PC-3 [6]): Dose-dependent effect | IC50 (PC-3 [6]; PC-3, 72 h): 400 to 800 nM | Activity [7]: Active | Activity [8]: inactive | Activity (PC-3 [9]): Tde | Activity [10]: inactive | Activity [11]: Active | Activity [12]: Non-Toxic | Activity [13]: Dose-dependent effect | Activity [14]: inactive | Activity (Homo sapiens): inactive | Activity [15]: inactive | Activity [16]: Active | Activity [17]: Non-Toxic
